Measured values reported in article PMC6272448, “Synthesis, ^18F-Radiolabelling and Biological Characterization of Novel Fluoroalkylated Triazine Derivatives for in Vivo Imaging of Phosphodiesterase 2A in Brain via Positron Emission Tomography” (Molecules, 2015).

Experiments:
[1] = in vivo metabolism in mice, conventional extraction and RP-HPLC; conditions: CD-1 mice, 30 min p.i., 150 MBq, extraction + RP-HPLC
Procedure: In vivo metabolism of [^18F]TA3 and [^18F]TA4 was investigated in plasma and brain samples obtained from CD-1 mice at 30 min post injection of 150 MBq of each radioligand. Analysis of the samples was performed after protein precipitation and twofold extraction using an organic solvent. […] In brain samples, 50% of total activity were represented by intact [^18F]TA3 (Figure 7; recovery: 65%).
(§1) The radioligands [^18F]TA3 or [^18F]TA4 (~60 MBq in 150 µL isotonic saline) were injected via the tail vein in female CD-1 mice (10–12 weeks old). Brain and blood samples were obtained at 30 min p.i., plasma separated by centrifugation (14,000× g, 1 min), and brain homogenized in ~1 mL isotonic saline on ice (10 strokes of a PTFE plunge at 1000 rpm in a borosilicate glass cylinder; Potter S Homogenizer, B. Braun Melsungen AG, Melsungen, Germany).
Twofold extractions of plasma (2 × 50 µL, 30 min p.i.) and brain samples (2 × 250 µL, 30 min p.i.) were performed using a mixture of ice-cold acetone/water (8:2, v/v; plasma or brain sample/organic solvent, 1:4, v/v). The samples were vortexed for 1 min, incubated on ice for 10 min (first extraction) or 5 min (second extraction) and centrifuged at 10,000 rpm for 5 min. Supernatants were collected and the precipitates were re-dissolved in ice-cold acetone/water for the second extraction. Aliquots from supernatants of each extraction step were taken. Activity thereof and of the precipitates was quantified using an automated gamma counter (1480 WIZARD, Fa. Perkin Elmer). The supernatants from both extractions were combined, concentrated under nitrogen stream at 70 °C and analyzed by radio-HPLC (system B).

[2] = in vitro stability in PBS, n-octanol and pig plasma; format: in vitro ADME; conditions: PBS pH 7.4, n-octanol and pig plasma, 60 min at 37 °C; radio-TLC and radio-HPLC
Procedure: (§2) To estimate the lipophilicity of [^18F]TA3 and [^18F]TA4, the distribution coefficients were determined by partitioning between n-octanol and phosphate buffered saline (PBS, pH 7.4) at ambient temperature using the conventional shake-flask method. […] In vitro stability of each radioligand was investigated in phosphate buffered saline (PBS, pH 7.4), n-octanol and pig plasma after 60 min incubation at 37 °C.
In vitro stabilities of [^18F]TA3 or [^18F]TA4 were investigated by incubation of the radioligands in phosphate buffered saline (PBS, pH 7.4), n-octanol and pig plasma at 37 °C for 60 min (~5 MBq of the radioligand added to 500 µL of each medium). Samples were taken at 15, 30 and 60 min after incubation and analyzed by radio-TLC and radio-HPLC (system B).

[3] = lipophilicity (logD7.4), shake-flask method; format: physicochemical; conditions: n-octanol/PBS (1:1, v/v), n-octanol / PBS pH 7.4, ambient temperature, fourfold determination
Procedure: as §2
The lipophilicity of [^18F]TA3 or [^18F]TA4 was determined by partitioning between n-octanol and phosphate buffered saline (PBS, pH 7.4) at ambient temperature using the conventional shake-flask method. An aliquot of 10 µL of the formulated solutions of each [^18F]TA3 or [^18F]TA4 with approximately 1 MBq of the radioligand was added to a tube containing 6 mL of the n-octanol/PBS-mixture (1:1, v/v, fourfold determination). The tubes were shaken for 20 min using a mechanical shaker (HS250 basic, IKA Labortechnik GmbH & Co. KG, Staufen, Germany) followed by centrifugation (5000 rpm for 5 min) and separation of the phases. Aliquots of each 1 mL were taken from the organic and the aqueous phase and activity was measured using an automated gamma counter (1480 WIZARD, Fa. Perkin Elmer, Waltham, MA, USA). The distribution coefficient (D) was calculated as [activity (cpm/mL) in n-octanol]/[activity (cpm/mL) in PBS, pH 7.4] specified as the decade logarithm (logD7.4).

[4] = in vivo metabolism in mice, micellar HPLC (MLC); conditions: CD-1 mice, 30 min p.i.; for intact radioligand in brain: brain homogenate; for intact radioligand in plasma: direct injection
Text: Therefore we used micellar HPLC (MLC), because this method allows the direct injection of plasma samples without deproteination. MLC was recently investigated by Nakao et al. regarding their suitability for direct plasma metabolite analysis of PET radioligands. As eluent a mixture of an aqueous solution of sodium dodecyl sulphate (SDS), phosphate buffer and 1-propanol was used. According to the published procedure, a gradient mode was applied starting under micellar conditions to completely elute the protein fraction and release the protein bound ^18F-compounds by the SDS micelles. Subsequent increase of the amount of 1-propanol as organic modifier leads to high submicellar conditions resulting in the elution of the intact radioligand and its radio-metabolites.
as §1
For preparation of the MLC injection samples, mouse plasma (20–50 µL, 30 min p.i.) was dissolved in 100–300 µL of 200 mM aqueous SDS and injected directly into the MLC system (500 µL sample loop; column: Reprosil-Pur C18-AQ, 250 × 4.6 mm, particle size: 10 µm; gradient: 0–15 min: 3% 1-PrOH, 15–40 min: 3% → 30% 1-PrOH; 40–49 min: 30% 1-PrOH, 49–50 min: 30% → 3% 1-PrOH; 50–60 min: 3% 1-PrOH/100 mM SDS, 10 mM Na2HPO4; flow: 1 mL/min; ambient temperature). […] Homogenized brain material (100–200 µL, 30 min p.i.) was dissolved in 500 µL of 200 mM aqueous SDS, stirred at 75 °C for 5 min and after cooling to ambient temperature injected into the MLC system.

intact radioligand in brain [1]	non-metabolized (intact) radioligand in plasma [1]	in vitro stability [2]	logD [3]	intact radioligand in brain [4]	intact radioligand in plasma [4]	Compound
No intact [^18F]TA4 was detectable	6 % of total activity	stable in all media tested in vitro	2.99 ± 0.15	4 % of total activity	5 % of total activity	COc1ccc2nnc3c(C)nc(-c4cc(OCCCC[18F])ccc4F)n3c2n1 [[^18F]TA4]
50 % of total activity	8 % of total activity	stable in all media tested in vitro	3.37 ± 0.14	29 % of total activity	5 % of total activity	COc1ccc2nnc3c(C)nc(-c4cc(OCCC[18F])ccc4F)n3c2n1 [[^18F]TA3]
